{"source": "paper PMC7836013", "about": "“Characterization of Formononetin Sulfonation in SULT1A3 Overexpressing HKE293 Cells: Involvement of Multidrug Resistance-Associated Protein 4 in Excretion of Sulfate” (Frontiers in Pharmacology, 2021)", "key": {"[1]": {"set-up": "method as in Singh and Wahajuddin, 2011", "conditions": "ref Singh and Wahajuddin, 2011; cited from earlier work"}, "HEK-SULT1A3 cell lysate [2]": {"biological_target": "T1, HEK-SULT1A3 cell lysate (Homo sapiens, UniProt P0DMM9)", "T1 construct": "expressed in transfected cells; cell lysate used", "T1 sequence (P0DMM9 whole entry)": "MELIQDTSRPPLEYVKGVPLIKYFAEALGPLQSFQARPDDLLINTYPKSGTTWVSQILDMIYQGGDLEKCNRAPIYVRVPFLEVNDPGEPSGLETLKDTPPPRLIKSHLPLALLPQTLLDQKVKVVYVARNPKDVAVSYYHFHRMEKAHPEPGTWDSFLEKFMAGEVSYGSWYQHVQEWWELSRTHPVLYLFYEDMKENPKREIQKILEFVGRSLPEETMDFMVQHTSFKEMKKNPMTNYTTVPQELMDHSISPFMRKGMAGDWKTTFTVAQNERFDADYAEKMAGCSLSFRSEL", "test": "Formononetin sulfonation enzyme kinetics in HEK-SULT1A3 cell lysate", "format": "in vitro ADME", "conditions": "Michaelis-Menten, mean ± SD (n = 3)", "protocol": "Enzyme kinetic of formononetin incubated with recombinant human SULT1A3 enzyme (rSULT1A3) was evaluated. The reaction was activated after the coenzyme PAPS (which provides sulfonate group to the substrates) was added. The incubation reaction was conducted in 200 μL potassium phosphate buffer (50 mM, pH 7.4) at 37°C, containing SULT1A3 enzyme (0.1 mg/ml), formononetin (0.16–40 μM), and PAPS (a final concentration of 0.10 mM). After incubation for 120 min, the reaction was terminated by adding 100 μL ice-cold acetonitrile. Then the samples were vortexed and centrifuged at 15,000 g for 15 min. The supernatant was analyzed by HPLC for sulfate quantification. All incubations were performed in triplicate. Preliminary experiments were performed to ensure that the rates of sulfation were determined under linear conditions with respect to incubation time and protein concentration.\nThe sulfonation rates of formononetin at different concentrations were determined according to the sulfonation assay protocol. […] The intrinsic clearance (CLint) was calculated by Vmax/Km.\nQuantification of formononetin sulfate was performed using Agilent 1,260 Infinity II HPLC system with a ZORBAX SB-C18 column (4.6 × 250 mm, 5 μm; Agilent). […] The samples were analyzed using a gradient of ammonium acetate (2.5 mM) in water (mobile phase A) vs. acetonitrile (mobile phase B) at a flow rate of 1.0 ml/min. […]"}, "MRP4 [3]": {"biological_target": "T2, MRP4 (Homo sapiens, UniProt O15439)", "T2 construct": "MRP4 was the only expressed MRPs family transporter in HEK-SULT1A3 cells; endogenous in cells; host or cells: HEK-SULT1A3 cells (HEK293 stably expressing SULT1A3)", "T2 sequence (O15439 1-1325)": "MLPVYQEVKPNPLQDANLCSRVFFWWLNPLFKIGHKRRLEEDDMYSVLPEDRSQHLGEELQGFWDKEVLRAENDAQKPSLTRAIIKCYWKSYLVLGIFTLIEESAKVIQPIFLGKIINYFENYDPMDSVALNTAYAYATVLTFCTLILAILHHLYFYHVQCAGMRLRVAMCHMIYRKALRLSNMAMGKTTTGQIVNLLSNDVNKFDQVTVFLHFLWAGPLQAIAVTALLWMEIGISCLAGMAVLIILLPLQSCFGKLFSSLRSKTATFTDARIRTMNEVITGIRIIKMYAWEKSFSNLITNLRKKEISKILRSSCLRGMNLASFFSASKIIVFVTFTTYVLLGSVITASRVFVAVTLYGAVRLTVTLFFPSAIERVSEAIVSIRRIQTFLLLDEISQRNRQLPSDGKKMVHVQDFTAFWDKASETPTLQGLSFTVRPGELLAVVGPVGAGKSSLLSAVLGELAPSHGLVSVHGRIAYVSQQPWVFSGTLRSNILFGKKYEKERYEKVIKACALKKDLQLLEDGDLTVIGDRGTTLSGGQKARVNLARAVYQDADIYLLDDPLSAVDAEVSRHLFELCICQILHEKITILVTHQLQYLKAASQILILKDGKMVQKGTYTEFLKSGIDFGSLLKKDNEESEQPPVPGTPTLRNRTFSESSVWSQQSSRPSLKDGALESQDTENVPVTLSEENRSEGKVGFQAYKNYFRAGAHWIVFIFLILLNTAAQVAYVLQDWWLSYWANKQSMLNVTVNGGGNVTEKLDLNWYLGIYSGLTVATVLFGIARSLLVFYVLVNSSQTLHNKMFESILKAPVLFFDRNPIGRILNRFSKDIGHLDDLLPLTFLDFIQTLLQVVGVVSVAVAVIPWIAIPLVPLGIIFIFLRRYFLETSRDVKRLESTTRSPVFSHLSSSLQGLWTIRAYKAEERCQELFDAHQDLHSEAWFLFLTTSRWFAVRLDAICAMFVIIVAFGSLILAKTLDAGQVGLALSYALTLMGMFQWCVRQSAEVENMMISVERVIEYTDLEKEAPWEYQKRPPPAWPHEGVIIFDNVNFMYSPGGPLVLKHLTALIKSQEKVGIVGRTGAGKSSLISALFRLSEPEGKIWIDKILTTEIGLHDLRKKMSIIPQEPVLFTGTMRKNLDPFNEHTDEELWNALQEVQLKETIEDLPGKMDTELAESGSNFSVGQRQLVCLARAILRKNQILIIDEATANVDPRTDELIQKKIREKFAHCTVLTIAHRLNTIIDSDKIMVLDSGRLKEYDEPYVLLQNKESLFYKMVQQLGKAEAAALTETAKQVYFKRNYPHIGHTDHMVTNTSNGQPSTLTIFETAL", "test": "Effect of shRNA-mediated MRP4 knockdown on formononetin disposition in HEK-SULT1A3 cells", "format": "cell-based", "conditions": "shMRP4 vs scramble, formononetin 2.5 and 10 μM", "protocol": "The sulfate excretion experiments were conducted using HEK-SULT1A3 cells model. In brief, HEK-SULT1A3 cells were washed with Hank's Balanced Salt Solution (HBSS) buffer (37°C, pH = 7.2) for three times. Then the cells were incubated with 2 ml HBSS buffer containing different concentrations of formononetin (final concentrations of 2.5 μM or 10 μM) at 37°C. 200 μL of incubation medium was sampled from each well at various times (0.5, 1.0, 1.5, and 2.0 h). Meanwhile, 200 μL of dosing solution was added immediately. The extracted samples were mixed with 100 μL ice-cold acetonitrile and vortexed for 1 min. The supernatant after centrifugation (15,000 g; 15 min) was injected into HPLC for analysis. After the last samples were taken, cells were collected into 400 μL ice-cold MeOH:H2O (1:1, v/v) and processed to measure the intracellular amount of formononetin sulfate. The excretion rate (ER) of intracellular sulfate was calculated exactly as described in our publications (Liu et al., 2018). The apparent efflux clearance (CLef,app) was derived as the excretion rate divided by the intracellular concentration of sulfate (Ci). Ci was determined by dividing intracellular amount of sulfate at 2 h by intracellular volume. The intracellular volume of HEK293 cells was measured using sulfanilamide as described ([Zhou et al., 2015]). […] Further, the fraction of dose metabolized (fmet), an indicator of the extent of drug sulfonation, was calculated according to Eq. 2. fmet=excreted sulfate+intracellular sulfate/total dosed aglycone (2) The cells were collected and lysed in RIPA Lysis Buffer (Beyotime, Shanghai) in advance. After quantified using BCA protein assay kit (Thermo Scientific, Waltham, Massachusetts), the cells samples or individual human intestine S9 fractions were analyzed by sodium dodecyl sulfate polyacrylamide gel electrophoresis (10% acrylamide gels) and transferred to polyvinylidene fluoride membranes ([…], Millipore, Bedford, MA). […] And then the protein bands were scanned in grayscale and subjected to semiquantitative analysis using Quantity One software."}, "HEK-SULT1A3 cell lysate [4]": {"biological_target": "T1, HEK-SULT1A3 cell lysate", "test": "Effect of chemical inhibitors on formononetin sulfonation in HEK-SULT1A3 cell lysate", "format": "in vitro ADME", "conditions": "inhibitor 5–20 μM, formononetin 2.5 and 10 μM, p > 0.05"}, "MRP4 [5]": {"biological_target": "T2, MRP4", "test": "Effect of MK-571 on formononetin sulfate excretion in HEK-SULT1A3 cells", "format": "cell-based", "protocol": "The sulfate excretion experiments were conducted using HEK-SULT1A3 cells model. In brief, HEK-SULT1A3 cells were washed with Hank's Balanced Salt Solution (HBSS) buffer (37°C, pH = 7.2) for three times. Then the cells were incubated with 2 ml HBSS buffer containing different concentrations of formononetin (final concentrations of 2.5 μM or 10 μM) at 37°C. 200 μL of incubation medium was sampled from each well at various times (0.5, 1.0, 1.5, and 2.0 h). Meanwhile, 200 μL of dosing solution was added immediately. The extracted samples were mixed with 100 μL ice-cold acetonitrile and vortexed for 1 min. The supernatant after centrifugation (15,000 g; 15 min) was injected into HPLC for analysis. After the last samples were taken, cells were collected into 400 μL ice-cold MeOH:H2O (1:1, v/v) and processed to measure the intracellular amount of formononetin sulfate. The excretion rate (ER) of intracellular sulfate was calculated exactly as described in our publications (Liu et al., 2018). The apparent efflux clearance (CLef,app) was derived as the excretion rate divided by the intracellular concentration of sulfate (Ci). Ci was determined by dividing intracellular amount of sulfate at 2 h by intracellular volume. The intracellular volume of HEK293 cells was measured using sulfanilamide as described ([Zhou et al., 2015])."}, "[6]": {"conditions": "MK-571 5–20 μM, formononetin 2.5 μM, p < 0.001"}, "[7]": {"conditions": "MK-571 5–20 μM, formononetin 10 μM, p < 0.001"}}, "note": "Where a name gives a salt, the structure may show the parent alone."}
{"smiles": "COc1ccc(-c2coc3cc(O)ccc3c2=O)cc1", "note": "[formononetin, Formononetin]", "values": [{"measurement": "Bioavailability of unchanged formononetin", "setting": "[1]", "result": "approximately 3%"}, {"measurement": "Vmax of formononetin sulfonation", "setting": "HEK-SULT1A3 cell lysate [2]", "result": "13.94 ± 0.83", "unit": "pmol/min/mg"}]}
{"smiles": "COc1ccc(-c2coc3cc(OS(=O)(=O)O)ccc3c2=O)cc1", "note": "[F-O-S, formononetin sulfate]", "values": [{"measurement": "Decrease in CLef,app of F-O-S on MRP4 knockdown", "setting": "MRP4 [3]; p < 0.01", "result": "> 50.6", "unit": "%"}, {"measurement": "Reduction in sulfate excretion rates on MRP4 knockdown", "setting": "MRP4 [3]; p < 0.01", "result": "> 32.8", "unit": "%"}, {"measurement": "Elevation in intracellular amounts of F-O-S on MRP4 knockdown", "setting": "MRP4 [3]; p < 0.05", "result": "> 127.4", "unit": "%"}]}
{"smiles": "CN(C)C(=O)CCSC(SCCC(=O)O)c1cccc(/C=C/c2ccc3ccc(Cl)cc3n2)c1", "note": "(stereo not drawn) [MK-571]", "values": [{"measurement": "Effect of inhibitor on formononetin sulfonation (generation of F-O-S)", "setting": "HEK-SULT1A3 cell lysate [4]", "result": "did not alter"}, {"measurement": "Decrease of CLef,app of F-O-S", "setting": "MRP4 [5]; [6]", "result": "85.3%–98.0%"}, {"measurement": "Reduction in excretion of F-O-S", "setting": "MRP4 [5]; [6]", "result": "79.1%–94.6%"}, {"measurement": "Decrease of excretion rates of F-O-S", "setting": "MRP4 [5]; [7]", "result": "79.8%–95.7%"}, {"measurement": "Increase of intracellular level of F-O-S", "setting": "MRP4 [5]; [7]", "result": "160.6%–188.8%"}, {"measurement": "Reduction of CLef,app of F-O-S", "setting": "MRP4 [5]; [7]", "result": "87.3%–97.7%"}, {"measurement": "Suppression of excretion of formononetin sulfate", "setting": "MRP4 [5]; MK-571 at 20 μM", "result": "> 94", "unit": "%"}]}
